Results as given in patent US20230158025A1 (UNIVERSITY OF UTAH RESEARCH FOUNDATION, priority 2020, published 2023).
pIC50, pKd: −log10 of the molar value. Read-outs that look alike come from different tables or passages of the source.

Assays:
[1] = aqueous kinetic solubility
recombinant human GALK1 = recombinant human GALK1 (Homo sapiens, UniProt P51570); assay: hGALK1 biochemical activity assay (Kinase-Glo Plus, ATP depletion)
Method in brief: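 Recombinant human or mouse GALK1 (5 nM, with 100 μM galactose, in the added enzyme solution) was run with ATP (35 μM in the substrate solution) in HEPES pH 8.0 buffer. Compounds were tested at 11 1/3-step concentrations from 57.4 μM to 0.97 nM. After 1 h at room temperature, remaining ATP was read by Kinase-Glo Plus luminescence.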

hGALK1m [2] = target: T1, hGALK1m (Homo sapiens, UniProt P51570, E253A/K252A); assay: in vitro hGALK1 activity assay of the structure-based optimisation (Example 12, Tables 17-20); assay type: biochemical; settings: for fold improvement of potency (IC50) versus parent compound: increase in potency relative to the unsubstituted parent
T1 construct: made in house; host or cells: E. coli HMS174
T1 sequence (P51570 whole entry K252A/E253A): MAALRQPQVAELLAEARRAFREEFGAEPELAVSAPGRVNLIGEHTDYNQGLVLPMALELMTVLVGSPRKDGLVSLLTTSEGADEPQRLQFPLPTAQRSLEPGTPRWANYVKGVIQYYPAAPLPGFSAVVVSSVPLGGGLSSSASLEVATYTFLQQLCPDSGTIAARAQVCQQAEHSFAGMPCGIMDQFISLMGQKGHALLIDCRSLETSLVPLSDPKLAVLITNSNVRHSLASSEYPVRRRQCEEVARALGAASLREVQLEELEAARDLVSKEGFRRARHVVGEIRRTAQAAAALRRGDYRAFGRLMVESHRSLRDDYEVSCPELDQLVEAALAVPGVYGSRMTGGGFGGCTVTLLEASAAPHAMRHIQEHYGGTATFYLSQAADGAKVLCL

hGALK1m [3] = target: T1, hGALK1m; assay: surface plasma resonance (SPR) binding; settings: SPR at 4° C.
Protocol: Further characterization of the two lead compounds thus far, Compound 1 and Compound 3, with surface plasma resonance (SPR), confirmed that these compounds bind to hGALK1m tightly. Their KDs were 23 nM and 12 nM respectively at 4° C. (FIGS. 4A and 3B). We attempted to co-crystalize these two compounds with hGALK1m, but only succeeded with Compound 1. […] Even with a fluorine substitution at C6 position, the benzoxazole ring of Compound 1 absolutely overlapped with that of Compound A (FIG. 4D). […] The decahydroquinazoline ring was opened in Compound 1, but the hydrogen bond between ketone group and Arg 105 remained intact, and Arg 105 moved closer to the ketone group in the crystal structure with Compound 1 (FIG. 4E). In addition, the amide's nitrogen atom formed a hydrogen bond with Tyr 109 (FIG. 4E), which could clarify why substituting the closed ring with opened amide structure improves the compound's activity. The isonicotinic acid moiety extended outside of the enzyme's active center and was solvent exposed (FIG. 4C).

recombinant mouse GALK1 = recombinant mouse GALK1 (Mus musculus, UniProt Q9R0N0); assay: mGALK1 biochemical activity assay (Kinase-Glo Plus, ATP depletion)
Chain of recombinant mouse GALK1 (Q9R0N0 whole entry): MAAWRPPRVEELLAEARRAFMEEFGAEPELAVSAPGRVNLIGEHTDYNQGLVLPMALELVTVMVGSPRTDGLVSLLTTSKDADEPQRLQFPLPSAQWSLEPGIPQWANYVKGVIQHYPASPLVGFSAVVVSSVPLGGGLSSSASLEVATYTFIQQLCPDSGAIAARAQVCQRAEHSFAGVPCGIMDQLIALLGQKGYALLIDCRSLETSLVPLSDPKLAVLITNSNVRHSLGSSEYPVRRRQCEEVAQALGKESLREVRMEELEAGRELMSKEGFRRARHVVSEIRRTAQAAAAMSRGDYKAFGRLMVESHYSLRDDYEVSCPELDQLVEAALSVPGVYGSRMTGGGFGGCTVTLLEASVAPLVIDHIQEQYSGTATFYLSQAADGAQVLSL
Method in brief: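 Recombinant GALK1 (5 nM) with 100 μM galactose; GALK1 turnover read as ATP depletion by Kinase-Glo Plus luminescence. Reaction ran 1 h at room temperature before detection reagent was added.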

[4] = rat microsomal stability (RLM); settings: for half-life: rat, rat liver microsomes
[5] = recombinant human GALK1, Kinase-Glo Plus ATP depletion, read-out: hGALK
[6] = Tables 18-19, read-out: Max Response (%)
[7] = Tables 18-20 and text of Example 12
[8] = PAMPA, ADME P: PAMPA permeability (class), Tables 17-19, class probably colour-coded, colour lost
[9] = PAMPA, Perm. (1 × 10^−6 cm/sec)
[10] = Tables 2-15, 35 μM ATP, 100 μM galactose, 1 h, bracketed figure after some values is undefined and not reported, read-out: mGALK IC50
[11] = recombinant mouse GALK1, Kinase-Glo Plus ATP depletion, read-out: mGALK
[12] = Tables 2-15, 35 μM ATP, 100 μM galactose, 1 h, bracketed figure after some values (e.g. −1.2) is undefined and not reported, read-out: hGALK IC50
[13] = Tables 18-19 and text of Example 12
[14] = 1 h, Table 17, read-out: Efficacy
[15] = Table 17, amide group optimization, no unit in table

Chain of recombinant human GALK1 (P51570 whole entry): as the sequence (P51570 whole entry K252A/E253A) above, with A252K, A253E counted along it

Row | Sol. [1] [µg/mL] | pIC50 (recombinant human GALK1; [5]) | Emax (hGALK1m [2]; [6]) [%] | Papp (PAMPA permeability; [8]) [×10⁻⁶ cm/s] | pIC50 (recombinant mouse GALK1; [10]) | pIC50 (recombinant mouse GALK1; [11]) | Metab. Stabil. (m) ([4]; microsomal half-life) | half-life [4] [min] | pIC50 (recombinant human GALK1; [12]) | Sol. ([1]; aqueous kinetic solubility) [µg/mL] | Emax (hGALK1m [2]; [14]) [%] | pIC50 (hGALK1m [2]; [15]) | Metab. Stabil. (m) ([4]; microsomal stability half-life) | Perm. (1 × 10^−6 cm/sec) (PAMPA permeability; PAMPA) | Compound | other results
1 | 46.1 | 6.17 | 100 | < 10 | 5.36 | 5.36 | >30 | < 10 |  |  |  |  |  |  | CC1=C(C(=O)Nc2cc(C(=O)O)ccn2)C(c2ccccc2Cl)N=C(Nc2nc3ccc(F)cc3o2)N1 (racemic) [Compound 1, 2-(4-(2-chlorophenyl)-2-((6-fluorobenzo[d]oxazol-2-yl)amino)-6-methyl-1,4-dihydropyrimidine-5-carboxamido)isonicotinic acid] | pIC50 (hGALK1m [2]; [7]): 6.59; fold improvement of potency (IC50) versus parent compound (hGALK1m [2]): ~4 fold; Papp (PAMPA permeability; [9]): < 1 ×10⁻⁶ cm/s; pKd (hGALK1m [3]): 7.64
2 | >76 | 6.66 | 100 | < 10 | 5.46 | 5.46 | >30 | < 10 | 6.66 |  |  |  |  |  | CC1=C(C(=O)Nc2cc(C(=O)O)ccn2)C(c2ccccc2Cl)N=C(Nc2nc3cccc(N)c3o2)N1 (racemic) [Compound 3, 2(2-((7-aminobenzo[d]oxazol-2-yl)amino)-4-(2-chlorophenyl)-6-methyl-1,4-dihydropyrimidine-5-carboxamido)isonicotinic acid] | pIC50 (hGALK1m [2]; [7]): 7.11; fold improvement of potency (IC50) versus parent compound (hGALK1m [2]): 13 fold; Papp (PAMPA permeability; [9]): < 1 ×10⁻⁶ cm/s; pKd (hGALK1m [3]): 7.92
3 | 60.1 | 4.71 | 90 | < 10 |  |  | >30 | < 10 | 4.71 |  |  |  |  |  | CC1=C(C(=O)Nc2cc(C(=O)O)ccn2)C(c2cccc(C(F)(F)F)c2)N=C(Nc2nc3ccc(F)cc3o2)N1 (centres unmarked) [Compound 77, 2-(2-((6-fluorobenzo[d]oxazol-2-yl)amino)-6-methyl-4-(3-(trifluoromethyl)phenyl)-1,4-dihydropyrimidine-5-carboxamido)isonicotinic acid] | change of potency versus parent compound (in words) (hGALK1m [2]): compromised the potency; pIC50 (hGALK1m [2]; [13]): < 4.82; Perm. (1 × 10^−6 cm/sec) (PAMPA permeability): <1 1 × 10^−6 cm/sec; mGALK IC50 (recombinant mouse GALK1; Tables 2-15, 35 μM ATP, 100 μM galactose, 1 h, bracketed figure after some values is undefined and not reported): inactive; mGALK (μM) (recombinant mouse GALK1; recombinant mouse GALK1, Kinase-Glo Plus ATP depletion): in- active
4 | >84 | 4.76 | 75 | < 10 | 4.41 | 4.41 | >30 | < 10 | 4.76 |  |  |  |  |  | CC1=C(C(=O)Nc2cc(C(=O)O)ccn2)C(c2cccc(S(N)(=O)=O)c2)N=C(Nc2nc3ccc(F)cc3o2)N1 (centres unmarked) [Compound 78, 2-(2-((6-fluorobenzo[d]oxazol-2-yl)amino)-6-methyl-4-(3-sulfamoylphenyl)-1,4-dihydropyrimidine-5-carboxamido)isonicotinic acid] | change of potency versus parent compound (in words) (hGALK1m [2]): significantly impaired the potency; pIC50 (hGALK1m [2]; [13]): < 4.82
5 |  |  | 100 | < 10 | 4.86 | 4.86 |  | < 10 | 4.96 | <1 | 57 | 5.16 | 24 |  | CC1=C(C(=O)Nc2ccccc2)C(c2ccccc2Cl)N=C(Nc2nc3ccccc3o2)N1 (centres unmarked) [Compound 137, 2-(benzo[d]oxazol-2-ylamino)-4-(2-chlorophenyl)-6-methyl-N-phenyl-1,4-dihydropyrimidine-5-carboxamide] | pIC50 (hGALK1m [2]; [13]): 6.01
6 |  | 5.61 |  | < 10 | 5.21 | 5.21 |  | < 10 |  | 59.1 | 96 | 5.51 | >30 | <1 1 × 10^−6 cm/sec | CC1=C(C(=O)Nc2cccc(C(=O)O)c2)C(c2ccccc2Cl)N=C(Nc2nc3ccccc3o2)N1 (centres unmarked) [Compound 142, 3-(2-(benzo[d]oxazol-2-ylamino)-4-(2-chlorophenyl)-6-methyl-1,4-dihydropyrimidine-5-carboxamido)benzoic acid] | 
7 |  |  |  | < 10 | 5.21 | 5.21 |  | < 10 | 5.82 | <1 | 100 | 5.85 | >30 | 3.6 1 × 10^−6 cm/sec | CC1=C(C(=O)Nc2ccc(C(=O)O)cc2)C(c2ccccc2Cl)N=C(Nc2nc3ccccc3o2)N1 (centres unmarked) [Compound 143, 4-(2-(benzo[d]oxazol-2-ylamino)-4-(2-chlorophenyl)-6-methyl-1,4-dihydropyrimidine-5-carboxamido)benzoic acid] | 
8 |  |  |  | < 10 | 4.96 |  |  | < 10 | 5.26 | <1 | 95 | 5.41 | >30 | 23.75 1 × 10^−6 cm/sec | CC1=C(C(=O)Nc2nnc(C)s2)C(c2ccccc2Cl)N=C(Nc2nc3ccccc3o2)N1 (centres unmarked) [Compound 173, 2-(benzo[d]oxazol-2-ylamino)-4-(2-chlorophenyl)-6-methyl-N-(5-methyl-1,3,4-thiadiazol-2-yl)-1,4-dihydropyrimidine-5-carboxamide] | 
9 |  | 5.41 |  | < 10 | 5.11 | 5.11 |  | < 10 | 5.41 | <1 | 96 | 5.47 | >30 | 207.3 1 × 10^−6 cm/sec | CC1=C(C(=O)Nc2nncs2)C(c2ccccc2Cl)N=C(Nc2nc3ccccc3o2)N1 (centres unmarked) [Compound 205, 2-(benzo[d]oxazol-2-ylamino)-4-(2-chlorophenyl)-6-methyl-N-(1,3,4-thiadiazol-2-yl)-1,4-dihydropyrimidine-5-carboxamide] | 
10 |  | 5.76 |  | < 10 | 5.16 | 5.16 |  | < 10 |  | 42.0 | 98 | 5.85 | 8.8722 | 98.8 1 × 10^−6 cm/sec | CC1=C(C(=O)NCc2cncn2C)C(c2ccccc2Cl)N=C(Nc2nc3ccccc3o2)N1 (centres unmarked) [Compound 230, 2-(benzo[d]oxazol-2-ylamino)-4-(2-chlorophenyl)-6-methyl-N-((1-methyl-1H-imidazol-5-yl)methyl)-1,4-dihydropyrimidine-5-carboxamide] | 
11 |  | 4.81 |  | < 10 | 4.86 | 4.86 |  | < 10 |  | 23.0 | 94 | 4.96 | 6.415 | >1113 1 × 10^−6 cm/sec | CC1=C(C(=O)NCc2nccn2C)C(c2ccccc2Cl)N=C(Nc2nc3ccccc3o2)N1 (centres unmarked) [Compound 231] | 
12 |  | 5.71 |  | < 10 | 4.91 | 4.91 |  | < 10 | 5.71 | <1 | 84 | 5.92 | 6.432 | 507.4 1 × 10^−6 cm/sec | CC1=C(C(=O)NCc2cncs2)C(c2ccccc2Cl)N=C(Nc2nc3ccccc3o2)N1 (centres unmarked) [Compound 232, 2-(benzo[d]oxazol-2-ylamino)-4-(2-chlorophenyl)-6-methyl-N-(thiazol-5-ylmethyl)-1,4-dihydropyrimidine-5-carboxamide] | 
13 |  | 5.06 |  | < 10 | 4.86 | 4.86 |  | < 10 | 5.06 | <1 | 48 |  | 4.516 |  | CC1=C(C(=O)NCc2nc3ccccc3n2C)C(c2ccccc2Cl)N=C(Nc2nc3ccccc3o2)N1 (centres unmarked) [Compound 234, 2-(benzo[d]oxazol-2-ylamino)-4-(2-chlorophenyl)-6-methyl-N-((1-methyl-1H-benzo[d]imidazol-2-yl)methyl)-1,4-dihydropyrimidine-5-carboxamide] | change of potency versus parent compound (in words) (hGALK1m [2]): significantly impaired the potency
